Each structure is given as a SMILES string. pIC50, pKd, pKi: −log10 of the molar value. The source made the active and inactive calls. The rule behind the calls is not given here.

The target in assay [1] is T1, Bifunctional epoxide hydrolase 2 (Homo sapiens, UniProt P34913).
T1 sequence (P34913 whole entry): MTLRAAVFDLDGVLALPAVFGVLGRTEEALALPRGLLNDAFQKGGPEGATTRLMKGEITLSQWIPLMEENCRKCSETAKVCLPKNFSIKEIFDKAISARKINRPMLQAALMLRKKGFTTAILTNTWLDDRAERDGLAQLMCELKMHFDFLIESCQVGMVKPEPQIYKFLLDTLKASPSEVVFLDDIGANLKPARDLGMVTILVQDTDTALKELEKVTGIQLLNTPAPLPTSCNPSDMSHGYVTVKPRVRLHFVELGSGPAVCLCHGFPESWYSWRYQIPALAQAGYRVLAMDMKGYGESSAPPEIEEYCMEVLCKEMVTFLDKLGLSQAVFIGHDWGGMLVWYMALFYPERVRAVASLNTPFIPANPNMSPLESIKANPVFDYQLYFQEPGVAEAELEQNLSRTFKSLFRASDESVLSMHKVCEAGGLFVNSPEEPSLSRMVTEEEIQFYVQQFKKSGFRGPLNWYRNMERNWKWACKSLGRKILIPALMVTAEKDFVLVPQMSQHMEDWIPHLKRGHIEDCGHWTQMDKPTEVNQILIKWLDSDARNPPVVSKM
The assay is described as follows: (§1) Inhibition of C-terminal domain of human sEH-H assessed as reduction in fluorescent naphthalene aldehyde formation using PHOME as substrate preincubated with enzyme for 30 mins followed by substrate addition and measured every minute for 45 mins by fluorescence based analysis.

Assay [2] addresses T1, Bifunctional epoxide hydrolase 2. The assay is described as follows: Displacement of (1R,3S)-N-(4-methoxy-2-(trifluoromethyl)benzyl)-3-((7-nitrobenzo[c][1,2,5]-oxadiazol-4-yl)amino)cyclohexane-1-carboxamide from NanoLuc-fused human sEH ( 1 to 555 residues) expressed in HEK293T cells incubated for 5 hrs by NanoBRET analysis. The format is cell-based. Particulars: read-out: Ki(app).

The target of assay [3] is T2, Bifunctional epoxide hydrolase 2 (Homo sapiens) (UniProt P34913).
T2 sequence (whole entry): T1 sequence (P34913 whole entry)
Put plainly: Binding affinity to C-terminal domain of human sEH-H at 20 nM incubated for 1 hr by fluorescence polarization assay. For orientation: Fluorescence polarisation rises when a labelled molecule tumbles more slowly, as on binding a larger partner.

The target in assay [4] is T2, Bifunctional epoxide hydrolase 2 (Homo sapiens). The description is as §1. Particulars: time 75.0 min, DDE = dose-dependent effect.
The target is the same in assay [5]. Put plainly: Binding affinity to human full length sEH (1 to 555 residues) expressed in doxycycline-induced HEK293 cells at 300 nM incubated for 5 hrs by Hoechst 33342 staining based fluorescence microscopy. The format is cell-based.
The target in assay [6] is T3, Bifunctional epoxide hydrolase 2 (Mus musculus) (UniProt P34914).
T3 sequence (whole entry): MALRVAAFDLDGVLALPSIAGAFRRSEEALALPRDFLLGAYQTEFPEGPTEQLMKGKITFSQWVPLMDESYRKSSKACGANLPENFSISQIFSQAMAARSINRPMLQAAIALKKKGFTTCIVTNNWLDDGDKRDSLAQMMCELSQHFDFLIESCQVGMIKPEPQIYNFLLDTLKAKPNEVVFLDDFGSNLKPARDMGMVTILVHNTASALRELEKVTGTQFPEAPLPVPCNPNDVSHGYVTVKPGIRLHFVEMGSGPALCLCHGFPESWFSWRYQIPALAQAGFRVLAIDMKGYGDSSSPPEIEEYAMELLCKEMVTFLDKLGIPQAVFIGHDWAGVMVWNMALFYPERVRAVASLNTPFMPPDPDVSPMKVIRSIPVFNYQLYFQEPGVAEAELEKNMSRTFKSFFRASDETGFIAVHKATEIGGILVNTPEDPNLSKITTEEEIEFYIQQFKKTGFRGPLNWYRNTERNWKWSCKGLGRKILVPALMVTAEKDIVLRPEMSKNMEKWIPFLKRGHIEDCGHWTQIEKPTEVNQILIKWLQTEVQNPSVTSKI
The assay is described as follows: (§2) Inhibition of C-terminal domain of mouse sEH-H assessed as reduction in fluorescent naphthalene aldehyde formation using PHOME as substrate preincubated with enzyme for 30 mins followed by substrate addition and measured every minute for 45 mins by fluorescence based analysis. Particulars: time 75.0 min, DDE = dose-dependent effect.

Assay [7] addresses T4, Bifunctional epoxide hydrolase 2 (Mus musculus, UniProt P34914).
T4 sequence (P34914 whole entry): T3 sequence (whole entry)
Described as §2.

Assay [8] deals with T1, Bifunctional epoxide hydrolase 2. Put plainly: Binding affinity to NanoLuc-fused human sEH ( 1 to 555 residues) expressed in HEK293T cells incubated for 5 hrs by NanoBRET analysis. The format is cell-based. Background: Bioluminescence resonance energy transfer reports proximity on the nanometre scale.
Assay [9] deals with T3, Bifunctional epoxide hydrolase 2 (Mus musculus). Put plainly: Binding affinity to sEH in C57BL/6J mouse astrocytes at 10 uM incubated for 5 hrs by DAPI staining based immunocytochemistry. The format is cell-based. Particulars: Astrocyte.
The target of assay [10] is T1, Bifunctional epoxide hydrolase 2. The assay is described as follows: Inhibition of human sEH BacMam transduced HEK293 cells assessed as reduction in 14,15-DHET formation using 14,15-EET as substrate preincubated for 30 mins followed by susbtrate addition and measured after 90 mins by fluorescence polarization assay. The format is cell-based.

Usually pIC50 stands for the negative decadic logarithm of the IC50, by convention in mol/L. As a reminder, the pKi is the negative decadic logarithm of the Ki, by convention in mol/L. Consider `O=C(NCc1ccc(NS(=O)(=O)C2CC2)cc1C(F)(F)F)c1ccc2[nH]ccc2c1`, for which, in [1], the pIC50 is 7.53. Besides, the pKi in [2] is 6.23.

What is called pKd is the negative decadic logarithm of the Kd, by convention in mol/L. Higher therefore signals a small Kd. In the case of `COc1ccc(CNC(=O)[C@@H]2CCC[C@H](Nc3ccc([N+](=O)[O-])c4nonc34)C2)c(C(F)(F)F)c1`, the result in assay [3], in assay [5] and in [9] was Active. The figures for the pIC50 in assay [1] and in assay [7] were 8.84 and 8.11, respectively. Further, the inhibition entry in assay [4] and in assay [6] was “Dde” in each case. For the same molecule, the pKd in assay [8] was 8.22.

On to `O=C(O)CCCCCCCCCCNC(=O)NC12CC3CC(CC(C3)C1)C2`, for which the results for the pIC50 in assay [1] and in assay [10] were 8.59 and 7.47, respectively. For the same molecule, the pKi in [2] is 7.80.

On to `CNc1nc(C)nc(N[C@H]2CCC[C@@H](C(=O)NCc3ccc(C#N)cc3C(F)(F)F)C2)n1` [GSK2256294], for which the pKi in [2] was 7.62.

The values above are taken from ChEMBL document CHEMBL5120942, “Designing a Small Fluorescent Inhibitor to Investigate Soluble Epoxide Hydrolase Engagement in Living Cells” (ACS Med Chem Lett, 2022).
